Laboratory results from patent publication US6787128B2, “Structure-improving hair care agents” (Henkel Kommanditgesellschaft auf Aktien, priority 2000, dated 2004).
Marks after values point to notes of the source that are not given here.

Experiments:
[1] = system: Human hair (Alkinco 6634); test: HP-DSC keratin melting point of permanent-waved hair after 1% aqueous active substance, Alkinco 6634; settings: treated 10 mins. with 1% aqueous solution of active substance, rinsed, dried
Excerpt: (§1) HP-DSC (High-Pressure Differential Scanning Calorimetry)
(§2) Thermoanalytical investigations are particularly suitable for characterizing two-phase systems to which human hair fibers as fibrous keratins with their crystalline α-helix component and amorphous matrix component also belong. On the one hand, glass transitions and aging behavior of the amorphous matrix can be investigated, on the other hand the melting behavior of the crystalline helical phase provides important information. Thermoanalytical studies were described for the first time in 1899. The first differential thermoanalyses (DTA) of protein fibers were carried out towards the end of the fifties (F. Schwenker, J. H. Dusenbury, Text. Res. J. 1963, 30, pages 800 et seq; W. D. Felix, M. A. McDowall, H. Eyring, ibid. (1963), 33, pages 465 et seq). In the following years, various thermoanalytical measuring techniques, such as DTA, HP-DTA (high-pressure DTA) and DSC (differential scanning calorimetry) were applied to keratin fibers, for example to investigate the phenomenon of supercontraction, α-β-phase transitions of the helices or denaturing processes. Recently, the method of IIP-DSC was used to study keratin fibers, more particularly at the Deutsches Wollforschungsinstitut (German Wool Research Institute) in Aachen (F. J. Wortmann, H. Deutz, J. Appl. Polym. Sci. 1993, 48, pp. 137 et seq.). IIP-DSC rules out the problems associated with pyrolytic effects which occur in conventional DSC and the problems with data acquisition and interpretation by which DTA is attended. DSC measurements are carried out on keratins which are encapsulated with water in commercially obtainable pressure-tight measuring capsules. In the keratin/water system, a high water vapor pressure from which the HP-DSC analysis derives builds up in the encapsulated steel crucibles on heating to >100° C. […]
(§3) Accordingly, both structural and chemical states and changes in fiber keratins and particularly in human hair fibers can be detected by dynamic differential scanning calorimetry (DSC). Under precisely defined test conditions, the processes detectable by calorimetry in human hair fibers can be recorded in the form of thermograms and used in regard to peak positions, structures and areas as an indicator for influencing order/disorder transitions through changes in inner and/or outer parameters produced, for example, by cosmetic treatment of the hair fibers. In other words, information on the strength of or damage to human hair fibers can be obtained from the endothermal peaks recorded in the thermogram of human hair fibers on the basis of peak position (transition point) and peak area (transition enthalpy). […]

[2] = system: Human hair (Alkinco 6633); test: HP-DSC keratin melting point of permanent-waved hair after 1% aqueous active substance, Alkinco 6633; settings: for Keratin melting point for Alkinco 6633: permanent-waved hair, treated 10 mins. with 1% aqueous solution of active substance, rinsed, dried
Excerpt: as §1
Thermoanalytical investigations are particularly suitable for characterizing two-phase systems to which human hair fibers as fibrous keratins with their crystalline α-helix component and amorphous matrix component also belong. On the one hand, glass transitions and aging behavior of the amorphous matrix can be investigated, on the other hand the melting behavior of the crystalline helical phase provides important information. Thermoanalytical studies were described for the first time in 1899. The first differential thermoanalyses (DTA) of protein fibers were carried out towards the end of the fifties (F. Schwenker, J. H. Dusenbury, Text. Res. J. […], 30, pages 800 et seq; W. D. Felix, M. A. McDowall, H. Eyring, ibid. (1963), 33, pages 465 et seq). In the following years, various thermoanalytical measuring techniques, such as DTA, HP-DTA (high-pressure DTA) and DSC (differential scanning calorimetry) were applied to keratin fibers, for example to investigate the phenomenon of supercontraction, α-β-phase transitions of the helices or denaturing processes. Recently, the method of IIP-DSC was used to study keratin fibers, more particularly at the Deutsches Wollforschungsinstitut (German Wool Research Institute) in Aachen (F. J. Wortmann, H. Deutz, J. Appl. Polym. Sci. 1993, 48, pp. 137 et seq.). IIP-DSC rules out the problems associated with pyrolytic effects which occur in conventional DSC and the problems with data acquisition and interpretation by which DTA is attended. DSC measurements are carried out on keratins which are encapsulated with water in commercially obtainable pressure-tight measuring capsules. In the keratin/water system, a high water vapor pressure from which the HP-DSC analysis derives builds up in the encapsulated steel crucibles on heating to >100° C. The crucial difference between the HP-DSC thermograms of human hair fibers and normal DSC thermograms is that the endothermal peaks which reproduce the transition point and the transition enthalpy are shifted by ca. 90° C. to lower temperatures. This derives from the fact that, after diffusing into the hair fibers, the water reduces protein stability by weakening and splitting hydrogen bridge bonds and salt bonds so that the “gluing temperature” of the keratins is reduced. If only hydrogen bridges and salt bridges are dissolved by the supercontracting agent, such as water, the thermal effect is reversible (supercontraction). However, the process becomes irreversible when covalent bonds, such as disulfide bridges for example, are split. […]
as §3

[3] = system: Human hair (Alkinco 6634); test: HP-DSC keratin melting point after aftertreatment with conditioner (Application Example 3.1) containing pyridoxine in various concentrations
Excerpt: as §1, §2, §3

[4] = Fastness to washing of oxidation hair color, overall color difference DE* after 6 washes; design: species or system human; settings: colored (Poly Diadem 718), 5 mins. rinse (Application Example 3.2) containing 2% active substance, washed 6x, smaller DE* = higher fastness
Protocol: Human hair fibers (Kerling Naturweiβ) were used. The hair fibers were intentionally damaged at their tips (2× blonding and 2× permanent waving) in order to simulate seriously damaged hair. […] After rinsing and drying, […] measurements (hair shafts and tips separated) were carried out and were repeated after 6 washes. […] The smaller DE* is, the smaller the loss of color by shampooing and the higher the fastness to washing.

Compound	Keratin melting point for Alkinco 6634 [1] [°C]	Keratin melting point for Alkinco 6633 [2]	Keratin melting point Alkinco 6634 ([3]; conditioner (Application Example 3.1) + 0.2% vitamin B6, 2 mins. aftertreatment of permanent-waved hair) [°C]	Keratin melting point Alkinco 6634 ([3]; conditioner (Application Example 3.1) + 0.5% vitamin B6, 2 mins. aftertreatment of permanent-waved hair) [°C]	Keratin melting point Alkinco 6634 ([3]; conditioner (Application Example 3.1) + 1.0% vitamin B6, 2 mins. aftertreatment of permanent-waved hair) [°C]	significance of (re)structuring effect by comparison with the reference sample ([3]; conditioner + 0.2% vitamin B6, Alkinco 6634)	increase in melting point ([2]; Alkinco 6633, 1% in water, versus permanent-waved reference sample, not statistically highly significant) [°C]	DE* for normal weathered shafts [4]	DE* for seriously damaged tips ([4]; tips damaged 2x blonding and 2x permanent waving)
Cc1ncc(COP(=O)(O)O)c(C=O)c1O [Pyridoxal-5-phosphate, pyridoxal-5′-phosphate]	152.7	148.3 °C	–	–	–	–	–	–	–
Cc1ncc(CO)c(C=O)c1O [Pyridoxal, pyridoxal]	152	147.7 °C	–	–	–	–	–	–	–
Cc1ncc(CO)c(CO)c1O [Pyridoxine, pyridoxine]	152.1	144* ° C.	146.2	146.5	147.4	satistically significant	0.5	1.8	5.8
Cc1ncc(CO)c(CN)c1O [Pyridoxamine, pyridoxamine]	152.2	147.9 °C	–	–	–	–	–	–	–
